# Laboratory results: US9056847B2, “Activity based probes (ABPs) interacting with glycosidases” (ACADEMISCH MEDISCH CENTRUM BIJ UNIVERSITEIT VAN AMSTERDAM, priority 2010, dated 2015)
# Like-named read-outs stand apart in the source and are kept apart here.
# What was measured:
# [1] = target: T1, GBA (Homo sapiens (Human), UniProt P04062, R534H); experiment: GBA enzyme activity assay with 4-methylumbelliferyl β-D-glucopyranoside, inhibitor preincubated 30 min (apparent IC50); format: biochemical
# T1 sequence (P04062 40-536 R534H): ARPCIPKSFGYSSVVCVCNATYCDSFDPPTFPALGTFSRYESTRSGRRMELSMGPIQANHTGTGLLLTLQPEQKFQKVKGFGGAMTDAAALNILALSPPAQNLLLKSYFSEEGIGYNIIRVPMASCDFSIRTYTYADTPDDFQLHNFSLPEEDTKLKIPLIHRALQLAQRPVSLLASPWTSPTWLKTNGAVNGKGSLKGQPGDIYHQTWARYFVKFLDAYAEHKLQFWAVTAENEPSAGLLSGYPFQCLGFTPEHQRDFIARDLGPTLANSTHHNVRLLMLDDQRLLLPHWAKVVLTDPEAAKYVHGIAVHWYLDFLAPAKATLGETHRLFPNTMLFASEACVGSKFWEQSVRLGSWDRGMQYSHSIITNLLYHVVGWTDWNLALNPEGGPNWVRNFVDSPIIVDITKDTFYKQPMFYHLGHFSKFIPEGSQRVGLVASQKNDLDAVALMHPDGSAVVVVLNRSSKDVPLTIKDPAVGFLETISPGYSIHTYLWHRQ
# [2] = target: GBA1 (Homo sapiens (Human), UniProt P04062); experiment: Kinetic constants of GBA1 inhibition (Table 2); format: biochemical; details: Table 2 kinetic constants
# Chain of GBA1 (Homo sapiens (Human), UniProt P04062) (P04062 40-536): as the sequence (P04062 40-536 R534H) above, with H495R counted along it
# [3] = target: T1, GBA; experiment: Continuous substrate release assay for inhibition constants; format: biochemical
# From the text: Previously discontinuous methods have been used to determine the inhibition constants of glycosidase inhibitors. […] Therefore the inhibition constants have been determined in a continuous substrate assay which was first described in 1982 (2) and has recently been reappraised in 2010 (3). In these experiments, inhibition of the enzyme and hydrolysis of the substrate proceed concurrently making the situation slightly more complex than the discontinuous (FIG. 39 Scheme 2). The time-dependent interaction of inhibitor (I) with free β-glucosidase (E) was considered to occur in separate stages (A). A rapid reversible interaction is followed by a slower, irreversible reaction that transforms the reversible enzyme-inhibitor complex (EI) into an irreversible enzyme-inhibitor complex (EI*) (FIG. 39 Scheme 2). Progress curves were obtained (FIG. 28a) and apparent rate constant k′ was plotted versus the concentration (FIG. 28b) to obtain estimates of the Ki (equilibrium constant) and ki (rate constant)
# To 100 μL McIlvaine buffer (pH 5.2, 0.2% sodium taurocholate, 0.1% Triton X-100) containing 4-methylumbelliferyl β-D-glucoside (7.5 mM) in Greiner flat bottom black 96-well plate was added 5 μL inhibitor (25× stock in DMSO). The resulting mixture was preincubated at 37° C. for 15 min in a TECAN GENios microplate reader. GBA (2 ng) in McIlvaine buffer (20 μL pH 5.2, 0.2% sodium taurocholate, 0.1% Triton X-100) was preheated to 37° C. for 15 min before being added to the substrate mix. The resulting solution was mixed by horizontal shaking for 15 sec, after which release 4-methylumbelliferyl measured with a TECAN GENios platereader (λex 340 nm and λem 465 nm) for the indicated time. Bleaching of the fluorophore, which was observed during the assay, was corrected by subtracting blanks (100 μL substrate buffer, 5 μL DMSO, 20 μL McIlvaine buffer). Apparent rate constants k′ were obtained by fitting the resulting progress curves (FIG. 28A) to the one-phase association equitation y (y max y0)(1−exp^−kt)yo+in GraphPad Prism version 5.00 for Windows, GraphPad Software, San Diego Calif. USA, www.graphpad.com. Measurements were performed in nine fold and plotting of the obtained k′ values versus [^I0] yielded rectangular hyperbolar functions (FIG. 28B).
# [formula] estimates of Ki app and ki were obtained. The Ki value in the absence of substrate was obtained by correcting the Ki app with […]
# [4] = target: T1, GBA; experiment: Sensitivity of detection of ABP-labeled GBA on slab gel by fluorescence scanning
# Protocol: After the incubation, we resolved the protein preparations with SDS-PAGE and analyzed the labeled proteins by fluorescence scanning of the slab gel on a Typhoon Variable Mode Imager (FIG. 24a). Labeled recombinant GBA migrated at the expected mass of 57 kDa. […] We could detect as little as 20 attomol GBA by fluorescence scanning. […] Apparently, nearly all of the probe had been covalently bound to recombinant GBA, consistent with its high affinity for binding.
# [5] = target: GBA1 (Homo sapiens (Human), UniProt P04062, N370S); experiment: In situ labeling of GBA1 in Gaucher (N370S) fibroblasts; format: cell-based; details: 20 nM for 1 hour, N370S GBA1 homozygote fibroblasts
# Chain of GBA1 (Homo sapiens (Human), UniProt P04062, N370S) (P04062 40-536 N409S): as the sequence (P04062 40-536 R534H) above, with N370S, H495R counted along it
# Protocol: FIG. 20 presents a schematic illustration of Gaucher treatment (FIG. 20a) via the chaperone isofagimine, whose structure is separately shown in FIG. 20b. […] The fibroblasts were labeled with Fluorophore 1-cyclophellitol (for example 20 nM for 1 hour), wherein about 50% of cellular GBA1 was labeled.
# [6] = target: glucocerebrosidase (Homo sapiens (Human), UniProt P04062); experiment: In situ inhibition of glucocerebrosidase in cells at 18° C. and 37° C.; format: cell-based; details: 10 nM, 2 hours
# Chain of glucocerebrosidase (P04062 40-536): as the sequence (P04062 40-536 R534H) above, with H495R counted along it
# From the text: To identify the mechanism of entry of the probes, we performed a temperature experiment. […] We harvested the cells and determined the residual activity using a fluorogenic substrate assay. […] We therefore exclude that the uptake is solely by endocytosis.
# [7] = target: T2, GBA (Mus musculus (Mouse), UniProt P17439); experiment: Labeling of GBA in live mice; format: in vivo; details: 0.1 nmol intravenously, 2 h
# Protocol: We next studied the labeling of GBA by MDW941 in intact fibroblasts using time-lapse microscopy. […] As a control, matched mice received the buffer solution intravenously. […] In addition to GBA, MDW933 clearly labeled other proteins that occur in the intestine in the mouse.
# Experimental procedures were all approved by the appropriate ethics committee for animal experiments. C57BI/6J mice were obtained from Harlan and fed a commercially available lab diet (RMH-B; Hope Farms). […] After 2 h of administration the mice were anesthetized with FFM mix (1 ml of fentanylcitrate, 1 ml of midazalam and 2 ml of distilled water), and blood, urine and organs were collected and directly frozen in liquid nitrogen. […] Homogenates were analyzed as described above.
# Target sequence in this assay (P17439 20-515): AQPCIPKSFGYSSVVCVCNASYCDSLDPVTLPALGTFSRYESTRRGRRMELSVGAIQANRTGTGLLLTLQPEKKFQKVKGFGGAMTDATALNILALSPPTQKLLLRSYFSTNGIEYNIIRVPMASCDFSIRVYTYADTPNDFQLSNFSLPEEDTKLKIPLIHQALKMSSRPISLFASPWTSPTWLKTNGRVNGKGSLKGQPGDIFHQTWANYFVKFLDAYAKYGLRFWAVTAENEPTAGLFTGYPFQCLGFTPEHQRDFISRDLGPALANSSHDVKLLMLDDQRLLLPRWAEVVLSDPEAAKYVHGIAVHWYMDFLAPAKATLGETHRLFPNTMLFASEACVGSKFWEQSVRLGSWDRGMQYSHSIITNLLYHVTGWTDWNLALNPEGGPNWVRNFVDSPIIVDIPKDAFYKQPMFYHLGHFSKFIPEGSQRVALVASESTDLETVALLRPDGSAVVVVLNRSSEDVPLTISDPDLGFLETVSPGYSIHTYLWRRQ
# [8] = tested on: lactase (lactase-phloridzin hydrolase: LPH); experiment: Lactase activity inhibition (liberated glucose); details: incubation for 30 min with 1 mM
# [9] = target: T2, GBA; experiment: Labeling specificity in cell homogenates (SDS-PAGE, fluorescence scanning); details: 100 nM, 30 min, 37° C., homogenates of cultured RAW cells
# Target sequence in this assay (P17439 20-515 limits assumed): as the sequence (P17439 20-515) above
smiles,measurement,setting,value
CC1=CC(C)=[N+]2C1=C(CCCCc1cn(C[C@@H]3[C@@H](O)[C@H](O)[C@@H](O)[C@@H]4O[C@H]34)nn1)c1c(C)cc(C)n1[B-]2(F)F [MDW933],IC50,"[1]; FIG. 16, ABPs designed for GBA1, read-out: IC50",2 nM
same,IC50,"[1]; rec. GBA1, 30 min, 37 C., pH 5.2 + Tch, Tr, read-out: Apparent IC50 (nM) rec. GBA1: 30 min, 37 C., pH 5.2 + Tch, Tr",2 ± 0.5 nM
same,IC50,"[1]; recombinant GBA, read-out: apparent half-maximal inhibitory concentration (IC50)",1.24 ± 0.04 nM
same,Ki,[2],0.95 nM
same,ki,[2],0.0236 min⁻¹
same,Ki,"[3]; equilibrium constant for initial binding, reported with s.e.m.",7 ± 2 nM
same,ki,"[3]; rate constant, reported with s.e.m.",0.127 ± 0.024 min⁻¹
same,ki/Ki,[3]; relative rate constant,296000 M⁻¹ s⁻¹
same,amount of labeled GBA detectable by fluorescence scanning,"[4]; 2 pmol GBA with excess probe, 1 h, 37° C., titration on gel",20 attomol
same,amount of probe resulting in detectable GBA on slab gel,"[4]; 2 pmol GBA, 30 min",20 attomol
same,amount of GBA1 detected on slab gel,[4]; ABP-labeled GBA1,10 attomole
same,cellular GBA1 labeled,[5],about 50%
same,in situ glucocerebrosidase activity,[6],blocked glucocerebrosidase activity in situ
same,in vivo labeling of GBA in brain,[7]; brain,almost no GBA
same,in vivo labeling of GBA in most tissues,[7]; lung and liver,a considerable proportion of GBA
same,inhibition of lactase activity,[8],~90%
same,labeling specificity,[9],exclusive labeling of GBA
